{
  "source": "patent US12324893B2",
  "about": "“Triptan microporation delivery system” (PassPort Technologies, Inc., priority 2019, dated 2025)",
  "experiment": "Effect of filament density, poration energy and filament array size on PK profile (Examples 7-9)",
  "set-up": "species or system guinea pigs",
  "details": "guinea pig, in vivo; for bioavailability: sc, relative bioavailability against SC injection, read-out: Bioavailability ± SE; for AUC / Cmax / Tmax: topical or ocular",
  "protocol": "This example describes various effects of filament density. To investigate the effect of filament density on PK profile and side effects (pain by poration and skin irritation), these studies were conducted. The filament density mainly affects the area to be utilized for the transfer of body fluid and ingredients in between skin and patch. The range of filament density was 100 filaments/cm^2 to 400 filaments/cm^2, and the poration energy was from 3 to 4 mJ/filament.\nThis example describes various effects to heating energy. The poration energy is related to the pore shape such as depth and width.\nThis example describes the selection of a desirable filament array size. Assuming the higher dose than 2 mg dose with the conditions 400 filaments/cm^2 filament density and 4 or 5 mJ/filament energy, filament array size may need to be made bigger. The range of dose was 0.5 to 4 mg, and the range of filament array size was 1.0 to 2.0 cm^2.",
  "key": {"[1]": {"details": "0.5 mg, Table 17 #1: dose 0.50 mg, 4 mJ/filament, filament array area 1.0 cm^2, 400 filaments/cm^2"}, "[2]": {"details": "2 mg, Table 13 # 1: 100 filaments/cm^2, 3 mJ/filament, area 1.0 cm^2, patch 2.00 mg Zolmitriptan"}, "[3]": {"details": "2 mg, Table 13 # 2: 200 filaments/cm^2, 3 mJ/filament, area 1.0 cm^2, patch 2.00 mg Zolmitriptan"}, "[4]": {"details": "2 mg, Table 13 # 3: 400 filaments/cm^2, 3 mJ/filament, area 1.0 cm^2, patch 2.00 mg Zolmitriptan"}, "[5]": {"details": "2 mg, Table 13 # 4: 100 filaments/cm^2, 4 mJ/filament, area 1.0 cm^2, patch 2.00 mg Zolmitriptan"}, "[6]": {"details": "2 mg, Table 13 # 5: 200 filaments/cm^2, 4 mJ/filament, area 1.0 cm^2, patch 2.00 mg Zolmitriptan"}, "[7]": {"details": "2 mg, Table 13 # 6: 400 filaments/cm^2, 4 mJ/filament, area 1.0 cm^2, patch 2.00 mg Zolmitriptan"}, "[8]": {"details": "2 mg, Table 15 # 1: 400 filaments/cm^2, 2 mJ/filament, area 1.0 cm^2, patch 2.00 mg Zolmitriptan"}, "[9]": {"details": "2 mg, Table 15 # 2: 400 filaments/cm^2, 3 mJ/filament, area 1.0 cm^2, patch 2.00 mg Zolmitriptan"}, "[10]": {"details": "2 mg, Table 15 # 3: 400 filaments/cm^2, 4 mJ/filament, area 1.0 cm^2, patch 2.00 mg Zolmitriptan"}, "[11]": {"details": "2 mg, Table 15 # 4: 400 filaments/cm^2, 5 mJ/filament, area 1.0 cm^2, patch 2.00 mg Zolmitriptan"}, "[12]": {"details": "2 mg, Table 17 # 2: dose 2.00 mg, 4 mJ/filament, filament array area 1.0 cm^2, 400 filaments/cm^2"}, "[13]": {"details": "3 mg, Table 17 # 3: dose 3.00 mg, 4 mJ/filament, filament array area 1.0 cm^2, 400 filaments/cm^2"}, "[14]": {"details": "4 mg, Table 17 # 4: dose 4.00 mg, 4 mJ/filament, filament array area 1.5 cm^2, 400 filaments/cm^2"}, "[15]": {"details": "4 mg, Table 17 # 5: dose 4.00 mg, 4 mJ/filament, filament array area 2.0 cm^2, 400 filaments/cm^2"}, "[16]": {"details": "4 mg, Table 17 # 6: dose 4.00 mg, 5 mJ/filament, filament array area 1.5 cm^2, 400 filaments/cm^2"}},
  "note": "Read-outs that look alike come from different tables or passages of the source.",
  "data": [
    {"compound": "CN(C)CCc1c[nH]c2ccc(C[C@H]3COC(=O)N3)cc12", "note": "[Zolmitriptan]", "values": [
      {"measurement": "bioavailability", "setting": "0.5 mg, Table 17 #1: dose 0.50 mg, 4 mJ/filament, 1.0 cm^2, 400 filaments/cm^2", "result": "70.6 ± 4.5", "unit": "%"},
      {"measurement": "bioavailability", "setting": "2 mg, Table 13 # 1: 100 filaments/cm^2, 3 mJ/filament, 1.0 cm^2, 2.00 mg patch", "result": "11.5 ± 0.6", "unit": "%"},
      {"measurement": "bioavailability", "setting": "2 mg, Table 13 # 2: 200 filaments/cm^2, 3 mJ/filament, 1.0 cm^2, 2.00 mg patch", "result": "73.8 ± 8.6", "unit": "%"},
      {"measurement": "bioavailability", "setting": "2 mg, Table 13 # 3: 400 filaments/cm^2, 3 mJ/filament, 1.0 cm^2, 2.00 mg patch", "result": "85 ± 5.6", "unit": "%"},
      {"measurement": "bioavailability", "setting": "2 mg, Table 13 # 4: 100 filaments/cm^2, 4 mJ/filament, 1.0 cm^2, 2.00 mg patch", "result": "50.3 ± 5.5", "unit": "%"},
      {"measurement": "bioavailability", "setting": "2 mg, Table 13 # 5: 200 filaments/cm^2, 4 mJ/filament, 1.0 cm^2, 2.00 mg patch", "result": "49.9 ± 7.7", "unit": "%"},
      {"measurement": "bioavailability", "setting": "2 mg, Table 13 # 6: 400 filaments/cm^2, 4 mJ/filament, 1.0 cm^2, 2.00 mg patch", "result": "102 ± 13.3", "unit": "%"},
      {"measurement": "bioavailability", "setting": "2 mg, Table 15 # 1: 400 filaments/cm^2, 2 mJ/filament, 1.0 cm^2, 2.00 mg patch", "result": "72.4 ± 10", "unit": "%"},
      {"measurement": "bioavailability", "setting": "2 mg, Table 15 # 2: 400 filaments/cm^2, 3 mJ/filament, 1.0 cm^2, 2.00 mg patch", "result": "85 ± 5.6", "unit": "%"},
      {"measurement": "bioavailability", "setting": "2 mg, Table 15 # 3: 400 filaments/cm^2, 4 mJ/filament, 1.0 cm^2, 2.00 mg patch", "result": "102 ± 13.3", "unit": "%"},
      {"measurement": "bioavailability", "setting": "2 mg, Table 15 # 4: 400 filaments/cm^2, 5 mJ/filament, 1.0 cm^2, 2.00 mg patch", "result": "95.5 ± 5.3", "unit": "%"},
      {"measurement": "bioavailability", "setting": "2 mg, Table 17 # 2: dose 2.00 mg, 4 mJ/filament, 1.0 cm^2, 400 filaments/cm^2", "result": "102 ± 13.3", "unit": "%"},
      {"measurement": "bioavailability", "setting": "3 mg, Table 17 # 3: dose 3.00 mg, 4 mJ/filament, 1.0 cm^2, 400 filaments/cm^2", "result": "76 ± 4.9", "unit": "%"},
      {"measurement": "bioavailability", "setting": "4 mg, Table 17 # 4: dose 4.00 mg, 4 mJ/filament, 1.5 cm^2, 400 filaments/cm^2", "result": "88.9 ± 4.6", "unit": "%"},
      {"measurement": "bioavailability", "setting": "4 mg, Table 17 # 5: dose 4.00 mg, 4 mJ/filament, 2.0 cm^2, 400 filaments/cm^2", "result": "105 ± 7.9", "unit": "%"},
      {"measurement": "bioavailability", "setting": "4 mg, Table 17 # 6: dose 4.00 mg, 5 mJ/filament, 1.5 cm^2, 400 filaments/cm^2", "result": "97.9 ± 12.3", "unit": "%"},
      {"measurement": "AUC", "setting": "[1]", "result": "364 ± 23", "unit": "ng·h/mL"},
      {"measurement": "Cmax", "setting": "[1]", "result": "190 ± 34", "unit": "ng/mL"},
      {"measurement": "Tmax", "setting": "[1]", "result": "0.63 ± 0.13", "unit": "h"},
      {"measurement": "AUC", "setting": "[2]", "result": "238 ± 13", "unit": "ng·h/mL"},
      {"measurement": "Cmax", "setting": "[2]", "result": "60 ± 13", "unit": "ng/mL"},
      {"measurement": "Tmax", "setting": "[2]", "result": "2.75 ± 1.25", "unit": "h"},
      {"measurement": "AUC", "setting": "[3]", "result": "1520 ± 177", "unit": "ng·h/mL"},
      {"measurement": "Cmax", "setting": "[3]", "result": "520 ± 51", "unit": "ng/mL"},
      {"measurement": "Tmax", "setting": "[3]", "result": "1.31 ± 0.19", "unit": "h"},
      {"measurement": "AUC", "setting": "[4]", "result": "1750 ± 116", "unit": "ng·h/mL"},
      {"measurement": "Cmax", "setting": "[4]", "result": "487 ± 63", "unit": "ng/mL"},
      {"measurement": "Tmax", "setting": "[4]", "result": "1.63 ± 0.13", "unit": "h"},
      {"measurement": "AUC", "setting": "[5]", "result": "1040 ± 113", "unit": "ng·h/mL"},
      {"measurement": "Cmax", "setting": "[5]", "result": "222 ± 30", "unit": "ng/mL"},
      {"measurement": "Tmax", "setting": "[5]", "result": "2.75 ± 0.72", "unit": "h"},
      {"measurement": "AUC", "setting": "[6]", "result": "1030 ± 159", "unit": "ng·h/mL"},
      {"measurement": "Cmax", "setting": "[6]", "result": "423 ± 30", "unit": "ng/mL"},
      {"measurement": "Tmax", "setting": "[6]", "result": "0.81 ± 0.06", "unit": "h"},
      {"measurement": "AUC", "setting": "[7]", "result": "2100 ± 275", "unit": "ng·h/mL"},
      {"measurement": "Cmax", "setting": "[7]", "result": "896 ± 191", "unit": "ng/mL"},
      {"measurement": "Tmax", "setting": "[7]", "result": "1.06 ± 0.16", "unit": "h"},
      {"measurement": "AUC", "setting": "[8]", "result": "1490 ± 206", "unit": "ng·h/mL"},
      {"measurement": "Cmax", "setting": "[8]", "result": "484 ± 130", "unit": "ng/mL"},
      {"measurement": "Tmax", "setting": "[8]", "result": "2.33 ± 0.83", "unit": "h"},
      {"measurement": "AUC", "setting": "[9]", "result": "1750 ± 116", "unit": "ng·h/mL"},
      {"measurement": "Cmax", "setting": "[9]", "result": "487 ± 63", "unit": "ng/mL"},
      {"measurement": "Tmax", "setting": "[9]", "result": "1.63 ± 0.13", "unit": "h"},
      {"measurement": "AUC", "setting": "[10]", "result": "2100 ± 275", "unit": "ng·h/mL"},
      {"measurement": "Cmax", "setting": "[10]", "result": "896 ± 191", "unit": "ng/mL"},
      {"measurement": "Tmax", "setting": "[10]", "result": "1.06 ± 0.16", "unit": "h"},
      {"measurement": "AUC", "setting": "[11]", "result": "1970 ± 108", "unit": "ng·h/mL"},
      {"measurement": "Cmax", "setting": "[11]", "result": "752 ± 89", "unit": "ng/mL"},
      {"measurement": "Tmax", "setting": "[11]", "result": "1.33 ± 0.33", "unit": "h"},
      {"measurement": "AUC", "setting": "[12]", "result": "2100 ± 275", "unit": "ng·h/mL"},
      {"measurement": "Cmax", "setting": "[12]", "result": "896 ± 191", "unit": "ng/mL"},
      {"measurement": "Tmax", "setting": "[12]", "result": "1.06 ± 0.16", "unit": "h"},
      {"measurement": "AUC", "setting": "[13]", "result": "2350 ± 152", "unit": "ng·h/mL"},
      {"measurement": "Cmax", "setting": "[13]", "result": "756 ± 115", "unit": "ng/mL"},
      {"measurement": "Tmax", "setting": "[13]", "result": "1.63 ± 0.13", "unit": "h"},
      {"measurement": "AUC", "setting": "[14]", "result": "3660 ± 189", "unit": "ng·h/mL"},
      {"measurement": "Cmax", "setting": "[14]", "result": "1310 ± 129", "unit": "ng/mL"},
      {"measurement": "Tmax", "setting": "[14]", "result": "1.33 ± 0.17", "unit": "h"},
      {"measurement": "AUC", "setting": "[15]", "result": "4310 ± 315", "unit": "ng·h/mL"},
      {"measurement": "Cmax", "setting": "[15]", "result": "2200 ± 358", "unit": "ng/mL"},
      {"measurement": "Tmax", "setting": "[15]", "result": "1.25 ± 0.14", "unit": "h"},
      {"measurement": "AUC", "setting": "[16]", "result": "4030 ± 506", "unit": "ng·h/mL"},
      {"measurement": "Cmax", "setting": "[16]", "result": "1710 ± 185", "unit": "ng/mL"},
      {"measurement": "Tmax", "setting": "[16]", "result": "0.75 ± 0.14", "unit": "h"}
    ]}
  ]
}
